Results on one compound are retold here after US5871753A, “Regulated transcription of targeted genes and other biological events” (Board of Trustees of the Leland Stanford Junior University, priority 1995, dated 1999).

SMILES strings stand for the structures.

Test [1] concerns NF-AT-directed transcription. The settings on record: Emmel et al. 1989; Flanagan et al. 1991; cited from earlier work.
Test [2] concerns chimeric receptor TAC/TAC/ZETA (TTZ). Description: Secreted alkaline phosphatase reporter (NFAT-SX and other IL-2 enhancer elements) activation via cross-linking of chimeric receptor TAC/TAC/ZETA in TAg Jurkat cells. The test is classed as cell-based, human. The settings on record: 1 ng/ml FK506; TTZ-transfected TAg Jurkat cells. The text has this: Induction of isolated IL-2 Enhancer-Binding Transcription Factors by cross-Linking the CD3.zeta. Chain of the T-Cell Receptor
The plasmid pSXNeo/IL2 (IL2-SX) (FIG. 1), placing the placental secreted alkaline phosphatase gene under the control of human IL-2 promoter (-325 to +47; MCB(86) 6, 3042), and variants (i.e. NFAT-SX, NFκB-SX, OAP/Oct1-SX, and AP-1-SX) under the control of the minimal IL-2 promoter (-325 to -294 and -72 to +47) plus synthetic oligomers, containing various promoter elements (i.e. NFAT, NKκKB, OAP/Oct-1, and AP1, respectively), were made by three piece ligations of 1) pPL/SEAP (Berger, et al., Gene (1988) 66,1) cut with SspI and HindIII; 2) pSV2/Neo (Southern and Berg, J. Mol. Appl. Genet. (1982) 1, 332) cut with NdeI, blunted with Klenow, then cut with PvuI; and 3) various promoter-containing plasmids (i.e. NFAT-CD8, κB-CD8, cx12lacZ-Oct-1, AP1-LUCIF3H, or cx15IL2) (described below) cut with PvuI and HindIII. NFAT-CD8 contains 3 copies of the NFAT-binding site (-286 to -257; Genes and Dev. (1990) 4, 1823) and cx12lacZ-Oct contains 4 copies of the OAP/Oct-1/(ARRE-1) binding site (MCB, (1988) 8, 1715) from the human IL-2 enhancer; κB-CD8 contains 3 copies of the NFκB binding site from the murine κ light chain (EMBO (1990) 9, 4425) and AP1-LUCIF3H contains 5 copies of the AP-1 site (5'-[…]-3') from the metallothionen promoter. […]

Test [3] concerns myristoylated chimeric CD3.zeta./FKBP12 (MZF3E) receptor. Description: NFAT-SX secreted alkaline phosphatase reporter activation through myristoylated chimeric CD3.zeta./FKBP12 (MZF3E) receptor. The test is classed as cell-based, human. The settings on record: 1 ng/ml FK506, FK1012B-stimulated. The procedure: Activity of the Dimeric FK506 Derivative, FK1012B, on the Myristoylated Chimeric CD3.zeta./FKBP12 (MZF3E) Receptor
5 μg of the eukaryotic expression vector, pBJ5, containing a myristoylated chimeric receptor was co-transfected with 4 μg NFAT-SX. MZE, MZF1E, MZF2E and MZF3E contain 0, 1, 2, or 3 copies of FKBP12, respectively, downstream of a myristoylated CD3.zeta. cytoplasmic domain (see FIG. 2). As a control, 5 μg of pBJ5 was used in a parallel transfection. After 24 hours, aliquots of each transfection containing approximately 10^5 cells were incubated with log dilutions of the drug, FK1012B, as indicated. As a positive control and to control for transfection efficiency, ionomycln (1 μm) and PMA (25 ng/ml) were added to aliquots from each transfection. After an additional 12 hour incubation, the supernatants were assayed for alkaline phosphatase activity and these activities were expressed relative to that or the positive control samples. […] Compare FIGS. 7 and 8.
A myristoylation sequence from c-src was obtained from Pellman, et al., Nature 314, 374, and joined to a complementary sequence of CD3.zeta. to provide a primer which was complementary to a sequence 3' of the transmembrane domain, namely P#8908 (SEQ ID NO. 23). This primer has a SacII site adjacent to the 5' terminus and a XhoI sequence adjacent to the 3' terminus of the myristoylation sequence. […]

Test [4] relates to chimeric FKBP12/CD3.zeta. (1FK3) receptor. Briefly: NFAT-inducible secreted alkaline phosphatase reporter activation through chimeric FKBP12/CD3.zeta. (1FK3) receptor. The class given is cell-based, human. The following applies: 2 ng/ml FK506; FK1012A-stimulated 1FK3 transfected cells. The procedure: Activity of the Dimeric FK506 Derivative, FK1012A, on the Chimeric FKBP12/CD3.zeta. (1FK3) Receptor
5 μg of the eukaryotic expression vector, pBJ5, (based on pCDL-SRαwith a polylinker inserted between the 16S splice site and the poly A site) containing the chimeric receptor (1FK3), was co-transfected with 4 μg of the NFAT-inducible secreted alkaline phosphatase reporter plasmid, NFAT-SX. As a control, 5 μg of pBJ5 was used, instead of 1FK3/pBJ5, in a parallel transfection. After 24 hours, aliquots of each transfection containing approximately 10^5 cells were incubated with log dilutions of the drug, FK1012A, as indicated. As a positive control and to control for transfection efficiency, ionomycin (1 μm) and PMA (25 ng/ml) were added to aliquots from each transfection. After an additional 14 hour incubation, the supernatants were assayed for alkaline phosphatase activity and these activities were expressed relative to that of the positive control samples.
To obtain the binding domain for FK506, plasmid rhFKBP (provided by S. Schreiber, Nature (1990) 346, 674) was used with P#6052 (SEQ ID NO. 33) and P#6053 (SEQ ID NO. 35) to obtain a 340 bp XhoI-SalI fragment containing human FKBP12. This fragment was inserted into pBluescript digested with XhoI and SalI to provide plasmid FK12/KS, which was the source for the FKBP12 binding domain. […]

Regarding `C=CC[C@@H]1/C=C(\C)C[C@H](C)C[C@H](OC)[C@H]2O[C@@](O)(C(=O)C(=O)N3CCCC[C@H]3C(=O)O[C@H](/C(C)=C/[C@@H]3CC[C@@H](O)[C@H](OC)C3)[C@H](C)[C@@H](O)CC1=O)[C@H](C)C[C@@H]2OC` [FK506], the “inhibition of NF-AT-directed transcription” value in test [1] is “Inhibition of NF-AT-directed transcription”. The “activity due to NFAT after addition of FK506” value in test [2] is given as “dropped all activity due to NFAT to background levels”. The “stimulations after addition of FK506” value in test [3] was “dropped all stimulations to near background levels”; in test [4], “dropped all stimulations to background levels”.
